Measured values: PMC7044277 (Nature Communications, 2020)
“And” between values parts separate entries of the source, which are not always exact repeats. Equal entries are not always repeated.

Legend:
DRD2 F1103.28L [1] = target: T1, DRD2 F1103.28L (Homo sapiens, UniProt P14416, F110L); experiment: Gαi/o-mediated cAMP inhibition (GloSensor), mutant; format: cell-based
T1 construct: expressed in transfected cells; host or cells: HEK293T (ATCC CRL-11268)

DRD3 F1063.28A [2] = target: T2, DRD3 F1063.28A (Homo sapiens, UniProt P35462, F106A); experiment: cell-based; format: cell-based
T2 sequence (P35462 whole entry F106A): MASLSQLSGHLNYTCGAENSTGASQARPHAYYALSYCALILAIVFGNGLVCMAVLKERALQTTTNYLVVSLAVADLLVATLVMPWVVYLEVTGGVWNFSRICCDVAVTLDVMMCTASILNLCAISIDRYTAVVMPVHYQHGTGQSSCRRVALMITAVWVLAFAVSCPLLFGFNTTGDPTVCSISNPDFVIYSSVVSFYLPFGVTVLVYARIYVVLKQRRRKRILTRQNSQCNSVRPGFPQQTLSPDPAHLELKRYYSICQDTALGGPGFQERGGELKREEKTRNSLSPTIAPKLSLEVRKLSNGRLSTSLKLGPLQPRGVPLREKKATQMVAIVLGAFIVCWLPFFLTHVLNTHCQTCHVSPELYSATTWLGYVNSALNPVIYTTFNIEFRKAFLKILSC

DRD4 (D4.4 variant) [3] = target: T3, DRD4 (D4.4 variant) (Homo sapiens, UniProt P21917); experiment: Gαi/o-mediated cAMP inhibition (GloSensor); format: cell-based; conditions: DRD4; agonist, cAMP inhibition; read-out: EC50 ± SEM
T3 sequence (P21917 1-419): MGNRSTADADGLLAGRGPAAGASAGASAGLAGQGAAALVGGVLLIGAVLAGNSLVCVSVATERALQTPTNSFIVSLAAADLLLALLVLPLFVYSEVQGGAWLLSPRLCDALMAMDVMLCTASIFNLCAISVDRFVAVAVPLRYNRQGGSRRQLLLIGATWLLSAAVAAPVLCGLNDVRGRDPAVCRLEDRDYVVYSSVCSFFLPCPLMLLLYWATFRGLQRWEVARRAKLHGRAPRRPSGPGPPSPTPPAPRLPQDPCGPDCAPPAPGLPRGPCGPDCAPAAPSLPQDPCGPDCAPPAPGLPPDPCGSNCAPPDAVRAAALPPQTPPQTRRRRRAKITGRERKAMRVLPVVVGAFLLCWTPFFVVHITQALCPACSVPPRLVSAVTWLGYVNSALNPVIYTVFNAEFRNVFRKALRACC

[4] = target: DRD2 (D2 long receptor) wild-type (Homo sapiens, UniProt P14416); experiment: Radioligand competition binding, [3H]-N-methylspiperone, HEK293T membranes; conditions: DRD2; [3H]-methylspiperone (0.8-1.0 nM); read-out: Ki
Sequence of DRD2 (D2 long receptor) wild-type (P14416 whole entry): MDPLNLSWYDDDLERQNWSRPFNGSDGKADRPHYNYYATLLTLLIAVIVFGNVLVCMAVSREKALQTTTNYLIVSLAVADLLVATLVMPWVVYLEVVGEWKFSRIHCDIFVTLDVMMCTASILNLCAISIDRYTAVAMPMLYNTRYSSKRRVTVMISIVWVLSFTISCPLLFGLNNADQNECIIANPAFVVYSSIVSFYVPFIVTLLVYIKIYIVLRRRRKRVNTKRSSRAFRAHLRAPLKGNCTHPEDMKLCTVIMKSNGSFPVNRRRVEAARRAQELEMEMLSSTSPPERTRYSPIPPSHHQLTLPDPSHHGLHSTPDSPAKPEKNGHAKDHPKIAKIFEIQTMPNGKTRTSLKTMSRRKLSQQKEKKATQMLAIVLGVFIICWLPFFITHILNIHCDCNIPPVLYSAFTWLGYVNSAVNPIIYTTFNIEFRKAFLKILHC

DRD2 F1103.28L [5] = target: T1, DRD2 F1103.28L; experiment: β-arrestin2 recruitment (Tango), mutant; format: cell-based
[6] = target: T4, DRD4 (D4.4 variant) wild-type (Homo sapiens, UniProt P21917); experiment: Radioligand competition binding, [3H]-N-methylspiperone; conditions: DRD4; [3H]-methylspiperone (0.8-1.0 nM); read-out: Ki
T4 sequence (P21917 1-419): T3 sequence (P21917 1-419)

DRD3 = DRD3 (Homo sapiens, UniProt P35462); experiment: β-arrestin2 recruitment (Tango); format: cell-based; conditions: DRD3, Tango
Sequence of DRD3 (P35462 whole entry): as the sequence (P35462 whole entry F106A) above, with A106F counted along it

DRD2 (D2 long receptor) [7] = target: T5, DRD2 (D2 long receptor) (Homo sapiens, UniProt P14416); experiment: Gαi/o-mediated cAMP inhibition (GloSensor split-luciferase cAMP reporter), HEK293T; format: cell-based; conditions: for response, Fig_S11d dose-response source data: replicate values;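 on all read-outs here: compounds applied 15 min at room temperature, then luciferin plus 400 nM isoproterenol to raise cAMP through endogenous β2-adrenergic receptors, luminescence read 15 min later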
T5 sequence (P14416 whole entry): as the sequence (P14416 whole entry) above

DRD3 F1063.28A [8] = target: T2, DRD3 F1063.28A; experiment: biochemical; format: binding
DRD2 (D2 long receptor) [9] = target: T5, DRD2 (D2 long receptor); experiment: β-arrestin2 recruitment (Tango), HTLA cells; format: cell-based; conditions: for response, Fig_S11e dose-response source data: replicate values
DRD2 F1103.28A [10] = target: T6, DRD2 F1103.28A (Homo sapiens, UniProt P14416, F110A); experiment: β-arrestin2 recruitment (Tango), mutant; format: cell-based; set-up: expressed in transfected cells; host or cells: HEK293T (ATCC CRL-11268)
T6 sequence (P14416 whole entry F110A): as the sequence (P14416 whole entry) above, with F110A counted along it

DRD2 F1103.28A [11] = target: T6, DRD2 F1103.28A; experiment: Gαi/o-mediated cAMP inhibition (GloSensor), mutant; format: cell-based; set-up: expressed in transfected cells; host or cells: HEK293T (ATCC CRL-11268)
DRD3 wild-type = DRD3 wild-type (Homo sapiens, UniProt P35462); experiment: Radioligand competition binding, [3H]-N-methylspiperone; conditions: DRD3; [3H]-methylspiperone (0.8-1.0 nM); read-out: Ki
Sequence of DRD3 wild-type (P35462 whole entry): as the sequence (P35462 whole entry F106A) above, with A106F counted along it

DRD4 (D4.4 variant) [12] = target: T3, DRD4 (D4.4 variant); experiment: β-arrestin2 recruitment (Tango); format: cell-based; conditions: DRD4; Tango; read-out: EC50 ± SEM
DRD2 F1103.28A [13] = target: T6, DRD2 F1103.28A; format: binding; set-up: expressed in transfected cells; host or cells: HEK293T (ATCC CRL-11268)
[14] = read-out: Emax relative to quinpirole response

T1 sequence (P14416 whole entry F110L): as the sequence (P14416 whole entry) above, with F110L counted along it

For `CCOc1cccc2cc(C(C)NCC3(O)CCCCCC3)oc12` (stereo not shown) [O4LE7], the EC50 (DRD2 F1103.28L [1]; DRD2 F1103.28L (b138 head prints DRD2 F1063.28L)) was 3.61 ± 0.07 nM, the Emax (DRD2 F1103.28L [1]; read-out: Emax relative to quinpirole response, DRD2 F1103.28L) was 72.6% and the EC50 (DRD3 F1063.28A [2]) was greater than 10 µM. For the same molecule, the EC50 (DRD4 (D4.4 variant) [3]) was greater than 10 µM, the Ki [4] was 1580 nM and the EC50 (DRD2 F1103.28L [5]) was 504 nM. It also gave an Emax (DRD2 F1103.28L [5]; [14]) of 25.8%, a Ki [6] of 4.07 µM and an EC50 (DRD3; read-out: EC50 ± SEM) of 803 ± 265 nM. For the same molecule, the Emax (DRD3; [14]) was 32.3%, the EC50 (DRD2 (D2 long receptor) [7]; DRD2, agonist, Gαi/o-mediated cAMP inhibition, read-out: EC50 ± SEM) was 1.65 ± 1.05 nM and the “response, Fig_S11d dose-response source data” value (DRD2 (D2 long receptor) [7]; Log[Drug] -6.52) was 96.8634. The “response, Fig_S11d dose-response source data” value (DRD2 (D2 long receptor) [7]; Log[Drug] -7) was 95.598 and 91.4295 and 85.3505 and 88.3932 and 84.5729 and 79.5858 and 85.933 and 88.7083 and 90.2631, the “response, Fig_S11d dose-response source data” value (DRD2 (D2 long receptor) [7]; Log[Drug] -7.52) was 86.7896 and 85.152 and 83.291 and 74.147 and 71.7381 and 81.1478 and 90.9653 and 82.4555 and 87.421 and the “response, Fig_S11d dose-response source data” value (DRD2 (D2 long receptor) [7]; Log[Drug] -8) was 74.0608 and 77.7579 and 74.8548 and 59.6561 and 53.4646 and 60.8794 and 74.9823 and 74.9154 and 83.8097. The “response, Fig_S11d dose-response source data” value (DRD2 (D2 long receptor) [7]; Log[Drug] -8.52) was 64.5825 and 59.1734 and 57.1139 and 43.5468 and 40.7239 and 43.8667 and 54.9367 and 67.0577 and 71.5884, the “response, Fig_S11d dose-response source data” value (DRD2 (D2 long receptor) [7]; Log[Drug] -9) was 50.9108 and 57.9824 and 64.8058 and 28.6043 and 24.1441 and 25.7626 and 68.5958 and 61.4569 and 59.9355 and the “response, Fig_S11d dose-response source data” value (DRD2 (D2 long receptor) [7]; Log[Drug] -9.52) was 29.7954 and 31.0609 and 40.6137 and 14.7533 and 4.309 and 6.285 and 34.6235 and 38.6026 and 45.7749. The “response, Fig_S11d dose-response source data” value (DRD2 (D2 long receptor) [7]; Log[Drug] -10) was 30.912 and 22.4013 and 39.5964 and 4.779 and -4.2354 and 0.1871 and 39.589 and 34.2056 and 43.2671, the “response, Fig_S11d dose-response source data” value (DRD2 (D2 long receptor) [7]; Log[Drug] -10.52) was 36.5196 and 13.1215 and 30.515 and 10.8765 and -4.6118 and 7.301 and 39.8732 and 28.9894 and 33.9548 and the “response, Fig_S11d dose-response source data” value (DRD2 (D2 long receptor) [7]; Log[Drug] -11) was 25.0067 and 7.067 and 19.399 and -4.2354 and -19.0273 and 3.763 and 32.3665 and 18.8244 and 27.4345. The “response, Fig_S11d dose-response source data” value (DRD2 (D2 long receptor) [7]; Log[Drug] -11.52) was 11.5335 and 13.2455 and 15.2305 and 7.489 and 4.214 and 9.484 and 32.4836 and 21.3489 and 42.8324, the “response, Fig_S11d dose-response source data” value (DRD2 (D2 long receptor) [7]; Log[Drug] -12) was 5.306 and -4.8923 and -12.733 and -1.883 and -0.2081 and -16.5056 and -3.2274 and 22.4524 and -2.0571 and the Emax (DRD2 (D2 long receptor) [7]; HEK-293T, read-out: Emax relative to quinpirole response, DRD2, cAMP inhibition) was 95.2%. For the same molecule, the Ki (DRD3 F1063.28A [8]) was 417 nM, the “affinity decreased, mutant vs wild type” value (DRD3 F1063.28A [8]; DRD3 Phe106^3.28Ala vs wild-type DRD3) was 1.75 fold and the EC50 (DRD2 (D2 long receptor) [9]; DRD2, β-arrestin2 recruitment (Tango), read-out: EC50 ± SEM) was 44.6 ± 4.71 nM. For the same molecule, the “response, Fig_S11e dose-response source data” value (DRD2 (D2 long receptor) [9]; Log[Drug] -6.52) was 70.7144, the “response, Fig_S11e dose-response source data” value (DRD2 (D2 long receptor) [9]; Log[Drug] -7) was 60.0625 and 58.8888 and 58.966 and 44.6969 and 52.556 and 54.4002 and 47.2717 and 45.6897 and 52.8235 and the “response, Fig_S11e dose-response source data” value (DRD2 (D2 long receptor) [9]; Log[Drug] -7.52) was 37.663 and 37.8279 and 34.2682 and 29.2235 and 29.8377 and 33.7069 and 31.0328 and 28.5097 and 31.1567. For the same molecule, the “response, Fig_S11e dose-response source data” value (DRD2 (D2 long receptor) [9]; Log[Drug] -8) was 19.0993 and 25.2494 and 16.3411 and 14.3144 and 11.2312 and 12.8766 and 17.2566 and 18.2263 and 16.5156, the “response, Fig_S11e dose-response source data” value (DRD2 (D2 long receptor) [9]; Log[Drug] -8.52) was 6.955 and 10.6803 and 8.41 and 5.811 and 4.949 and 5.989 and 8.148 and 9.142 and 8.777 and the “response, Fig_S11e dose-response source data” value (DRD2 (D2 long receptor) [9]; Log[Drug] -9) was 5.592 and 4.443 and 5.4634 and 4.207 and 4.266 and 4.232 and 6.141 and 5.2483 and 8.786. For the same molecule, the “response, Fig_S11e dose-response source data” value (DRD2 (D2 long receptor) [9]; Log[Drug] -9.52) was 4.527 and 4.325 and 4.4009 and 4.395 and 4.556 and 4.701 and 4.762 and 4.575 and 4.648, the “response, Fig_S11e dose-response source data” value (DRD2 (D2 long receptor) [9]; Log[Drug] -10) was 3.636 and 4.222 and 3.934 and 4.061 and 4.088 and 4.136 and 4.898 and 3.74 and 4.41 and the “response, Fig_S11e dose-response source data” value (DRD2 (D2 long receptor) [9]; Log[Drug] -10.52) was 4.52 and 6.171 and 4.768 and 3.986 and 4.148 and 4.0514 and 3.608 and 3.803 and 4.57. The “response, Fig_S11e dose-response source data” value (DRD2 (D2 long receptor) [9]; Log[Drug] -11) was 5.604 and 3.965 and 4.161 and 3.823 and 4.063 and 4.032 and 3.814 and 4.075 and 4.582, the “response, Fig_S11e dose-response source data” value (DRD2 (D2 long receptor) [9]; Log[Drug] -11.52) was 3.3514 and 3.514 and 3.342 and 3.863 and 4.025 and 4.187 and 4.1 and 3.746 and 4.367 and the “response, Fig_S11e dose-response source data” value (DRD2 (D2 long receptor) [9]; Log[Drug] -12) was 4.706 and 3.881 and 4.189 and 3.844 (2×) and 3.873 and 3.954 and 3.594 and 3.602. It also gave an Emax (DRD2 (D2 long receptor) [9]; HTLA, read-out: Emax relative to quinpirole response, DRD2, Tango) of 71.8%, an EC50 (DRD2 F1103.28A [10]) greater than 10 µM and an EC50 (DRD2 F1103.28A [11]) greater than 10 µM. It also gave a Ki (DRD3 wild-type) of 240 nM, an EC50 (DRD4 (D4.4 variant) [12]) greater than 10 µM and a Ki (DRD2 F1103.28A [13]; DRD2 F1103.28A, read-out: pKi ± SEM (converted)) of 214 nM. For the same molecule, the “affinity increase (binding enhanced), mutant vs wild type” value (DRD2 F1103.28A [13]; DRD2 Phe110^3.28Ala vs wild-type DRD2) was 7.52 fold.
